Laboratory results reported in article PMC12171880, “Selectivity and Safety Characterization of a Xanthine–Imidazothiazole Lead Structure: a Novel Tryptophan Hydroxylase Inhibitor of Peripheral Serotonin Synthesis” (ACS Pharmacology & Translational Science, 2025).

Tests used:
A3 receptor = test system: A3 receptor; set-up: method as in EMA/508026/2017; conditions: 10 μM; ref EMA/508026/2017; cited from earlier work
human recombinant TPH2 = target: T1, human recombinant TPH2 (Homo sapiens, UniProt Q8IWU9); assay: TPH2 enzymatic activity assay (fluorescence, 96-well); type: biochemical
T1 construct: Full-length human TPH1 and TPH2 (UniProt entries P17752 and Q8IWU9); MBP (N); made in house
T1 sequence (Q8IWU9 1-490): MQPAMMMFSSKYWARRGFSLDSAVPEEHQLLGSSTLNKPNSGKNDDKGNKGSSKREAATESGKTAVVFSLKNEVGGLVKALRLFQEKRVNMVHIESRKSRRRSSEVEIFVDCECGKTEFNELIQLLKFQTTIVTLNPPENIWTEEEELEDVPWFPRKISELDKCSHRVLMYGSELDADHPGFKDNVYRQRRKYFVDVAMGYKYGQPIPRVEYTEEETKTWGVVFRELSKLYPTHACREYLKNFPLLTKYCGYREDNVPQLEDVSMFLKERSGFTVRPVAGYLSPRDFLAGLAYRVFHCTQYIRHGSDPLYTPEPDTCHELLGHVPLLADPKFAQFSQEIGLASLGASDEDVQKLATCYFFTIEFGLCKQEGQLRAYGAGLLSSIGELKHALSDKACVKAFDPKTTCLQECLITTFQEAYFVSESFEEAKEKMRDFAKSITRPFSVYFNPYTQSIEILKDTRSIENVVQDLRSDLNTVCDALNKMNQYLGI

5-HT1B receptor = test system: 5-HT1B receptor; set-up: method as in EMA/508026/2017; conditions: 10 μM; ref EMA/508026/2017; cited from earlier work
5-HT2A receptor = test system: 5-HT2A receptor; set-up: method as in EMA/508026/2017; conditions: 10 μM; ref EMA/508026/2017; cited from earlier work
human recombinant PAH = target: T2, human recombinant PAH (Homo sapiens, UniProt P00439); assay: PAH enzymatic activity assay (fluorescence, 96-well); type: biochemical
T2 construct: expression vectors for full-length human PAH (UniProt entry P00439); made in house; host or cells: E. coli T7 Express (NEB) with pRARE2
T2 sequence (P00439 1-452): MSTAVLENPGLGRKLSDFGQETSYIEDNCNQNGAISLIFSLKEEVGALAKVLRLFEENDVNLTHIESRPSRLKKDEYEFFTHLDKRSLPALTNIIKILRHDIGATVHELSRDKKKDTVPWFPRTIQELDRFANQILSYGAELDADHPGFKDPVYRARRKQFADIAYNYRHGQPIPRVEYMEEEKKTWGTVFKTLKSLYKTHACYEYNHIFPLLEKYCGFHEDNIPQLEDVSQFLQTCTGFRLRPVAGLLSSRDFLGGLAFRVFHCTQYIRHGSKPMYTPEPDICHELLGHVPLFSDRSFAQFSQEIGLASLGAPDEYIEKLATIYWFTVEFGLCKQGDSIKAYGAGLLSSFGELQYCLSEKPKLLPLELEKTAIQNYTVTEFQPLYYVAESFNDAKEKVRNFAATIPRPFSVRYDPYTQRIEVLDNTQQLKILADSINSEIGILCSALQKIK

recombinant human TH = target: T3, recombinant human TH (Homo sapiens, UniProt P07101); assay: TH enzymatic activity assay (fluorescence, 96-well); type: biochemical
T3 construct: For purification of MBP-tagged full-length PAH and TH; made in house; host or cells: E. coli T7 Express (NEB) with pRARE2
Protocol: The TH enzymatic activity assay was performed using a 96-well plate format (Greiner). […] To initiate the reaction, L-Tyr (Fluka) was added (final concentration, 30 μM). The assay contained positive control samples (complete reaction mix, no inhibitor test compound), negative control samples (reaction mix without BH4), and an additional L-Tyr control (reaction mix without BH4, spiked with 25.5 μM or 27 μM L-Tyr) to measure the progression of the enzymatic reaction. All samples were measured in technical triplicates. The TH assay was performed at RT for 30 min. Depletion of the reaction substrate (L-Tyr) was continuously monitored at 240 s intervals by fluorescence measurements (ex.280 nm/em.306 nm) for 12 min using a Tecan Infinite 200 plate reader.
Negative control values (no enzyme or no substrate) were deducted from the positive control (full enzyme activity) and test compound values. Subsequently, the data were normalized (Pos. Ctr. = 100% of the enzyme activity). The results were further analyzed with GraphPad Prism 9 using the nonlinear regression model: log(inhibitor) vs. response−variableslope(fourparameters) which fits the following equation to the data: Y=Bottom+(Top−Bottom)/(1+10^((logIC50−X)×HillSlope))
The IC50 values were calculated from three independent experiments and are given as the mean ± SD.

human recombinant TPH1 = target: T4, human recombinant TPH1 (Homo sapiens, UniProt P17752); assay: TPH1 enzymatic activity assay (fluorescence, 96-well); type: biochemical
T4 construct: Full-length human TPH1 and TPH2 (UniProt entries P17752 and Q8IWU9); MBP (N); made in house
T4 sequence (P17752 1-444): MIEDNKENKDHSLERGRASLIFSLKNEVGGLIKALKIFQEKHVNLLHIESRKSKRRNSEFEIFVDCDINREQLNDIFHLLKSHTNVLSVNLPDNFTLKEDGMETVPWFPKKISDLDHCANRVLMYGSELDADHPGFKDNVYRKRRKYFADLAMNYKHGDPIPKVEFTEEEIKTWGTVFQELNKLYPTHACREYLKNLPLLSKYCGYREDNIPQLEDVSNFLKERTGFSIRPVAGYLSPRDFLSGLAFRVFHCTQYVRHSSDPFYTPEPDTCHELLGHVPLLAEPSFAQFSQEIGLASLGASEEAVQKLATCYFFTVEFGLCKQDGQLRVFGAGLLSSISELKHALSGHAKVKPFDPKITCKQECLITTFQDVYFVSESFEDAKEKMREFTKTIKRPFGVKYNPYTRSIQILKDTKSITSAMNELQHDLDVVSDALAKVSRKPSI

[1] = test system: 75 human receptors, enzymes, and ion channels; set-up: method as in EMA/508026/2017; conditions: ref EMA/508026/2017; cited from earlier work
[2] = 10 nM to 30 μM, 175 μM L-Phe, 10 μM BH4

T3 sequence (P07101 whole entry): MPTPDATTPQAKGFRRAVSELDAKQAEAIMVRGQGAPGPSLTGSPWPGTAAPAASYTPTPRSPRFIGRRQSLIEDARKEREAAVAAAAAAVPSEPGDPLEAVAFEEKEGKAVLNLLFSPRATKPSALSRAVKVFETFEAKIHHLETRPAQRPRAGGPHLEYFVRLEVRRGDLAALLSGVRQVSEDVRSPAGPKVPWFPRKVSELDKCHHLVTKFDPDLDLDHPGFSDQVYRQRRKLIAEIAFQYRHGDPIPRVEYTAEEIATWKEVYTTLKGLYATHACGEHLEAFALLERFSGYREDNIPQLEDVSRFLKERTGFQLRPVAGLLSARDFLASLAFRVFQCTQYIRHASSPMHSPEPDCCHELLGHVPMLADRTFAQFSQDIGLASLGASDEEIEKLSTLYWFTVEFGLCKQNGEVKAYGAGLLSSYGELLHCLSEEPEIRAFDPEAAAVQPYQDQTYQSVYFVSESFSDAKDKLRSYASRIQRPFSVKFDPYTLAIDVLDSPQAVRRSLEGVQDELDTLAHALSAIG

Cc1ccn(-c2cc(Cl)ccc2[C@@H](Oc2cc(-c3ccc(C[C@H](N)C(=O)O)cc3)nc(N)n2)C(F)(F)F)n1 [LP778902, Telotristat]
inhibition at A3 receptor (A3 receptor): more than 50%
Mean TPH2 activity [%] (human recombinant TPH2; 3 nM): 99.93%
Mean TPH2 activity [%] (human recombinant TPH2; 10 nM): 100.78%
Mean TPH2 activity [%] (human recombinant TPH2; 30 nM): 99.88%
Mean TPH2 activity [%] (human recombinant TPH2; 100 nM): 97.93%
Mean TPH2 activity [%] (human recombinant TPH2; 300 nM): 92.18%
Mean TPH2 activity [%] (human recombinant TPH2; 1 μM): 10.61%
Mean TPH2 activity [%] (human recombinant TPH2; 3 μM): 3.90%
Mean TPH2 activity [%] (human recombinant TPH2; 10 μM): 3.17%
inhibition at 5-HT1B receptor (5-HT1B receptor): more than 50%
inhibition at 5-HT2A receptor (5-HT2A receptor): more than 50%
Mean PAH activity [%] (human recombinant PAH; 10 nM): 99.68%
IC50 (human recombinant PAH; [2]): 2.69 µM
Mean PAH activity [%] (human recombinant PAH; 30 nM): 96.34%
Mean PAH activity [%] (human recombinant PAH; 100 nM): 95.74%
Mean PAH activity [%] (human recombinant PAH; 300 nM): 92.85%
Mean PAH activity [%] (human recombinant PAH; 1 μM): 79.01%
Mean PAH activity [%] (human recombinant PAH; 3 μM): 42.58%
Mean PAH activity [%] (human recombinant PAH; 10 μM): 18.22%
Mean PAH activity [%] (human recombinant PAH; 30 μM): 7.18%
IC50 (human recombinant PAH; supplementary CSV): 2.69 µM
Mean TH activity [%] (recombinant human TH; 10 nM): 91.23%
IC50 (recombinant human TH; 10 nM to 30 μM, 30 μM L-Tyr, 5 μM BH4): 8.11 µM
Mean TH activity [%] (recombinant human TH; 30 nM): 96.35%
Mean TH activity [%] (recombinant human TH; 100 nM): 91.73%
Mean TH activity [%] (recombinant human TH; 300 nM): 96.86%
Mean TH activity [%] (recombinant human TH; 1 μM): 89.03%
Mean TH activity [%] (recombinant human TH; 3 μM): 79.57%
Mean TH activity [%] (recombinant human TH; 10 μM): 43.11%
Mean TH activity [%] (recombinant human TH; 30 μM): 14.34%
Mean TPH1 activity [%] (human recombinant TPH1; 3 nM): 99.75%
Mean TPH1 activity [%] (human recombinant TPH1; 10 nM): 100.85%
Mean TPH1 activity [%] (human recombinant TPH1; 30 nM): 101.72%
Mean TPH1 activity [%] (human recombinant TPH1; 100 nM): 100.00%
Mean TPH1 activity [%] (human recombinant TPH1; 300 nM): 91.38%
Mean TPH1 activity [%] (human recombinant TPH1; 1 μM): 12.20%
Mean TPH1 activity [%] (human recombinant TPH1; 3 μM): 4.78%
Mean TPH1 activity [%] (human recombinant TPH1; 10 μM): 5.34%

CCOC(=O)[C@@H](N)Cc1ccc(-c2cc(O[C@H](c3ccc(Cl)cc3-n3ccc(C)n3)C(F)(F)F)nc(N)n2)cc1 [LX1606, Telotristat ethyl]
number of 75 receptors with over 50% of the activity inhibited [1]: 16
Mean PAH activity [%] (human recombinant PAH; 10 nM): 96.86%
IC50 (human recombinant PAH; [2]): 7.91 µM
Mean PAH activity [%] (human recombinant PAH; 30 nM): 97.35%
Mean PAH activity [%] (human recombinant PAH; 300 nM): 94.55%
Mean PAH activity [%] (human recombinant PAH; 1 μM): 91.16%
Mean PAH activity [%] (human recombinant PAH; 3 μM): 64.20%
Mean PAH activity [%] (human recombinant PAH; 10 μM): 37.02%
Mean PAH activity [%] (human recombinant PAH; 30 μM): 33.74%
PAH activity, not reduced below (human recombinant PAH; highest tested concentration (30 μM)): ≥ 30%
IC50 (human recombinant PAH; supplementary CSV): 7.91 µM
Mean TH activity [%] (recombinant human TH; 10 nM): 94.16%
Mean TH activity [%] (recombinant human TH; 30 nM): 93.57%
Mean TH activity [%] (recombinant human TH; 100 nM): 94.52%
Mean TH activity [%] (recombinant human TH; 300 nM): 91.31%
Mean TH activity [%] (recombinant human TH; 1 μM): 96.27%
Mean TH activity [%] (recombinant human TH; 3 μM): 96.83%
Mean TH activity [%] (recombinant human TH; 10 μM): 87.53%
Mean TH activity [%] (recombinant human TH; 30 μM): 71.72%
reduction of TH activity compared to the positive control (recombinant human TH; two highest concentrations (10 and 30 μM)): ≤ 30%
IC50 (human recombinant TPH1; 3 nM to 10 μM, 15 μM L-Trp, 20 μM BH4): 1.44 µM
